Reference: ChEMBL document CHEMBL3286290, “In vitro screening of pentamidine analogs against bacterial and fungal strains” (Bioorg Med Chem Lett, 2014)
Converted amounts (≈) assume the structure as drawn. Where a name gives a salt, the structure may show the parent alone.

Legend:
Assay type in all cases: functional
[1] = test system: Candida albicans; experiment: Antifungal activity against Candida albicans ATCC 2091 assessed as growth inhibition by M7-A6 method
[2] = test system: Staphylococcus aureus; experiment: Antibacterial activity against penicillin, erythromycin, amikacin, clindamycin, ciprofloxacin, methicillin-resistant Staphylococcus aureus 572/12 assessed as growth inhibition by M7-A6 method
[3] = test system: Micrococcus luteus; experiment: Antibacterial activity against Micrococcus luteus ATCC 10240 assessed as growth inhibition by M7-A6 method
[4] = test system: Bacillus subtilis; experiment: Antibacterial activity against Bacillus subtilis ATCC 6633 assessed as growth inhibition by M7-A6 method
[5] = test system: Staphylococcus aureus; experiment: Antibacterial activity against erythromycin, amikacin, clindamycin, ciprofloxacin, methicillin-resistant Staphylococcus aureus 15K/11 assessed as growth inhibition by M7-A6 method
[6] = test system: Candida parapsilosis; experiment: Antifungal activity against Candida parapsilosis ATCC 22019 assessed as growth inhibition by M7-A6 method; conditions: Lodderomyces parapsilosis
[7] = Antifungal activity against Zygosaccharomyces rouxii ATCC 28253 assessed as growth inhibition by M7-A6 method
[8] = test system: Saccharomyces cerevisiae; experiment: Antifungal activity against Saccharomyces cerevisiae ATCC 9763 assessed as growth inhibition by M7-A6 method
[9] = test system: Micrococcus luteus; experiment: Antibacterial activity against Micrococcus luteus ATCC 9341 assessed as growth inhibition by M7-A6 method
[10] = test system: Pseudomonas aeruginosa; experiment: Antibacterial activity against Pseudomonas aeruginosa ATCC 9027 assessed as growth inhibition by M7-A6 method
[11] = test system: Bacillus cereus; experiment: Antibacterial activity against Bacillus cereus ATCC 11778 assessed as growth inhibition by M7-A6 method
[12] = test system: Aspergillus brasiliensis; experiment: Antifungal activity against Aspergillus brasiliensis ATCC 16404 assessed as growth inhibition by M7-A6 method
[13] = test system: Staphylococcus aureus; experiment: Antibacterial activity against penicillin, erythromycin, amikacin, clindamycin, ciprofloxacin, methicillin-resistant Staphylococcus aureus 573/12 assessed as growth inhibition by M7-A6 method
[14] = test system: Escherichia coli; experiment: Antibacterial activity against Escherichia coli ATCC 8739 assessed as growth inhibition by M7-A6 method
[15] = test system: Staphylococcus aureus; experiment: Antibacterial activity against penicillin, erythromycin, amikacin, clindamycin, ciprofloxacin, methicillin-resistant Staphylococcus aureus 495/11 assessed as growth inhibition by M7-A6 method
[16] = test system: Candida albicans; experiment: Antifungal activity against Candida albicans ATCC 10231 assessed as growth inhibition by M7-A6 method
[17] = test system: Escherichia coli; experiment: Antibacterial activity against Escherichia coli ATCC 10536 assessed as growth inhibition by M7-A6 method
[18] = test system: Staphylococcus aureus; experiment: Antibacterial activity against penicillin, erythromycin, clindamycin, ciprofloxacin, methicillin-resistant Staphylococcus aureus 19K/11 assessed as growth inhibition by M7-A6 method
[19] = test system: Staphylococcus aureus; experiment: Antibacterial activity against Staphylococcus aureus ATCC 6538 assessed as growth inhibition by M7-A6 method
[20] = test system: Pseudomonas aeruginosa; experiment: Antibacterial activity against Pseudomonas aeruginosa ATCC 15442 assessed as growth inhibition by M7-A6 method
[21] = test system: Staphylococcus aureus; experiment: Antibacterial activity against Staphylococcus aureus ATCC 6538P assessed as growth inhibition by M7-A6 method

Compound | MIC [1] [µM] | MIC [3] [µM] | MIC [4] [µM] | MIC [6] [µM] | MIC [7] [µM] | MIC [8] [µM] | MIC [9] [µM] | MIC [10] [µM] | MIC [11] [µM] | MIC [12] [µM] | MIC [14] [µM] | MIC [16] [µM] | MIC [17] [µM] | MIC [19] [µM] | MIC [20] [µM] | MIC [21] [µM] | also measured
N=C(N)c1ccc(OCCCCCOc2ccc(C(=N)N)cc2)cc1 [PENTAMIDINE HYDROCHLORIDE] | 110 | 4.4 | 67 | 4.4 | 67 | 280 | 1.1 | 1110 | 1.1 | 22 | 280 | 110 | 280 | 22 | 1670 | 67 | MIC [2]: 560 µM; MIC [5]: 1110 µM; MIC [13]: 140 µM; MIC [15]: 1110 µM; MIC [18]: 140 µM
COc1cc(C(=N)N)ccc1OCCN(CCOc1ccc(C(=N)N)cc1OC)S(=O)(=O)c1ccccc1 | 370 (≈ 200 µg/mL) | 42 (≈ 22.7 µg/mL) | 42 (≈ 22.7 µg/mL) | 370 (≈ 200 µg/mL) | 180 (≈ 97.5 µg/mL) | 180 (≈ 97.5 µg/mL) | 15 (≈ 8.12 µg/mL) | 7380 (≈ 4000 µg/mL) | 42 (≈ 22.7 µg/mL) | 7380 (≈ 4000 µg/mL) | 370 (≈ 200 µg/mL) | 92 (≈ 49.8 µg/mL) | 740 (≈ 401 µg/mL) | 42 (≈ 22.7 µg/mL) | 7380 (≈ 4000 µg/mL) | 42 (≈ 22.7 µg/mL) | –
COc1cc(C(=N)N)ccc1OCCOCCOc1ccc(C(=N)N)cc1OC | 10500 (≈ 4230 µg/mL) | 520 (≈ 209 µg/mL) | 2100 (≈ 845 µg/mL) | 5260 (≈ 2120 µg/mL) | – | 10500 (≈ 4230 µg/mL) | 2100 (≈ 845 µg/mL) | > 21000 | 1050 (≈ 423 µg/mL) | 21000 (≈ 8470 µg/mL) | 2100 (≈ 845 µg/mL) | 10500 (≈ 4230 µg/mL) | 10500 (≈ 4230 µg/mL) | 260 (≈ 105 µg/mL) | > 21000 | 520 (≈ 209 µg/mL) | –
COc1cc(C(=N)N)ccc1OCCN(CCOc1ccc(C(=N)N)cc1OC)S(=O)(=O)c1ccc(NC(C)=O)cc1 | 1430 (≈ 856 µg/mL) | 89 (≈ 53.3 µg/mL) | 720 (≈ 431 µg/mL) | 360 (≈ 216 µg/mL) | 1430 (≈ 856 µg/mL) | 1430 (≈ 856 µg/mL) | 72 (≈ 43.1 µg/mL) | 7160 (≈ 4290 µg/mL) | 72 (≈ 43.1 µg/mL) | 7160 (≈ 4290 µg/mL) | 3580 (≈ 2140 µg/mL) | 180 (≈ 108 µg/mL) | 3580 (≈ 2140 µg/mL) | 140 (≈ 83.8 µg/mL) | 7160 (≈ 4290 µg/mL) | 360 (≈ 216 µg/mL) | –
COc1cc(C(=N)N)ccc1OCCN(C)CCOc1ccc(C(=N)N)cc1OC | > 16300 | 410 (≈ 170 µg/mL) | 810 (≈ 337 µg/mL) | > 16300 | – | – | 200 (≈ 83.1 µg/mL) | > 16300 | 100 (≈ 41.5 µg/mL) | – | 8130 (≈ 3380 µg/mL) | > 16300 | 16300 (≈ 6760 µg/mL) | 8130 (≈ 3380 µg/mL) | > 16300 | 8130 (≈ 3380 µg/mL) | –
COc1cc(C(=N)N)cc(OC)c1OCCN(CCOc1c(OC)cc(C(=N)N)cc1OC)S(=O)(=O)c1ccccc1 | 7040 (≈ 4240 µg/mL) | 7 (≈ 4.21 µg/mL) | 70 (≈ 42.1 µg/mL) | 7040 (≈ 4240 µg/mL) | 7040 (≈ 4240 µg/mL) | 7040 (≈ 4240 µg/mL) | 2.8 (≈ 1.68 µg/mL) | 7040 (≈ 4240 µg/mL) | 88 (≈ 52.9 µg/mL) | 7040 (≈ 4240 µg/mL) | 7040 (≈ 4240 µg/mL) | 7040 (≈ 4240 µg/mL) | 7040 (≈ 4240 µg/mL) | 70 (≈ 42.1 µg/mL) | 7040 (≈ 4240 µg/mL) | 70 (≈ 42.1 µg/mL) | –
COc1cc(C(=N)N)cc(OC)c1OCCCCCOc1c(OC)cc(C(=N)N)cc1OC | 1780 (≈ 820 µg/mL) | 18 (≈ 8.29 µg/mL) | 89 (≈ 41 µg/mL) | 890 (≈ 410 µg/mL) | 110 (≈ 50.7 µg/mL) | 4460 (≈ 2050 µg/mL) | 3.5 (≈ 1.61 µg/mL) | 1780 (≈ 820 µg/mL) | 110 (≈ 50.7 µg/mL) | 8920 (≈ 4110 µg/mL) | 220 (≈ 101 µg/mL) | 890 (≈ 410 µg/mL) | 220 (≈ 101 µg/mL) | 54 (≈ 24.9 µg/mL) | 4460 (≈ 2050 µg/mL) | 54 (≈ 24.9 µg/mL) | –
N=C(N)c1ccc(OCCN(CCOc2ccc(C(=N)N)cc2)S(=O)(=O)c2ccccc2)cc1 | 210 (≈ 101 µg/mL) | 16 (≈ 7.71 µg/mL) | 82 (≈ 39.5 µg/mL) | 100 (≈ 48.2 µg/mL) | 10 (≈ 4.82 µg/mL) | 210 (≈ 101 µg/mL) | 100 (≈ 48.2 µg/mL) | 1640 (≈ 790 µg/mL) | 16 (≈ 7.71 µg/mL) | 8220 (≈ 3960 µg/mL) | 210 (≈ 101 µg/mL) | 210 (≈ 101 µg/mL) | 210 (≈ 101 µg/mL) | 49 (≈ 23.6 µg/mL) | 1640 (≈ 790 µg/mL) | 49 (≈ 23.6 µg/mL) | –
